Assay type in all cases: cell-based, human
For test [1], the system named is MCF-7 cells. In words: Luciferase assay (bioluminescent cell viability). The following applies: Homo sapiens. As to the method: (§1) Cell lines and culture. MCF-7 and MDA human breast cancer cell lines stably transfected with firefly luciferase gene were purchased from Caliper Life Sciences (Hanover, MD). MCF-7 cells were cultured in DMEM medium (Invitrogen, Carlsbad, CA) and MDA cells were grown in DMEM/F-12 (1:1) medium (Invitrogen). Both media were supplemented with 10% fetal bovine serum (Invitrogen) and antibiotic-antimycotic mixture (100 IU/ml penicillin and 100 μg/ml streptomycin; Cellgro). The cells were maintained at 37° C. in 5% CO2. All experiments were performed when the cells were in the logarithmic phase of growth. Luciferase assay. The MDA cell line and the hormone receptor-positive MCF-7 cell line were utilized to test the effectiveness of Sal-B and doxorubicin on cancer cell viability. Both cell lines had been stably transfected and expressed the firefly luciferase gene. The bioluminescent signal intensity reflects the cell metabolic activity, being highly correlated with the cell viability. Cell viability was evaluated using the sensitive bioluminescent optical imaging. The cells (10,000 per well) were seeded in flat-bottomed 96-well plates in the above-identified medium with 10% fetal bovine serum and allowed to grow overnight. The old medium was then replaced with fresh medium containing different concentrations of Sal-B (50, 100, 150, and 200 μM) or doxorubicin (0.1, 0.2, 0.5, and 1 μM). The cells were further cultured for 24 hours and D-luciferin was added to each well and mixed gently (final concentration of 150 μ/ml). The signal was measured with the Xenogen IVIS 200 imaging system (Caliper Life Sciences, Hopkinton, MA, USA). The system was equipped with a highly sensitive, cooled charge-coupled device (CCD) camera and a light-tight specimen box. Imaging and quantification of signals was controlled by the acquisition and analysis software Living Image 3.0. The bioluminescent signal from the cells in each well was expressed as total flux (photons per second (p/s)). At least five replicates were performed in each experiment, and each experiment was repeated at least three times. The representative data are presented.

The subject of test [2] is MDA-MB-231 cells. In words: Luciferase assay (bioluminescent cell viability). How it is done: as §1
For test [3], the system named is MCF-7 cells. The test is described as follows: Cell cycle profile analysis by flow cytometry. The following applies: Sal-B 50 μM and 100 μM, 24 hours. How it is done: (§2) Cell cycle profile analysis using flow cytometry and Western blot analysis. To understand the effects of Sal-B on the cell cycle of cancer cells, the cell cycle profile was analyzed using flow cytometry. The cells from both cell lines were treated with Sal-B (50 and 100 µM) or doxorubicin (0.1 and 1 μM) for 24 hours and then fixed in chilled 80% ethanol. The fixed cells were incubated in a solution containing 100 μg/mL RNase at 37° C. water bath for 45 minutes. Propidium iodide (final concentration of 50 μg/ml) was then added to the cells and incubated in a 37° C. water bath for another 15 minutes. The analysis was carried out with a FACStar flow cytometer (Becton Dickinson, San Jose, CA). Ten thousand cells per sample were analyzed, cach sample was done in triplicate and the experiment was repeated three times.
In general terms: Flow cytometry measures light scatter and fluorescence of single cells or particles in a stream.

Test [4] deals with MDA-MB-231 cells. In words: Cell cycle profile analysis by flow cytometry. The following applies: Sal-B 50 μM and 100 μM, 24 hours. How it is done:
as §2

The test system of the next test is cyclin B1. The test is described as follows: Western blot of cyclin B1 expression in MDA and MCF-7 cells. The following applies: Sal-B 50 μM and 100 μM, 24 hours. As to the method:
The expression of two cell cycle-related proteins—cyclin A and cyclin B1—was checked by Western blot. The expression of cyclin A and cyclin B1 was normalized by the expression of the internal control β-actin (lower panel). The cells were treated with 50 μM and 100 μM Sal-B, respectively, for 24 hours. Doxorubicin (0.1 μM and 1 μM) was used as a control. […] The results may be explained by that the cell cycle progression is controlled by a large set of molecules, although cyclin B1 is a key component in the control of cell cycle progression from G2 to M phase.
(§3) The immunohistochemical results were consistent with those from Western blotting (FIG. 7, panel A). Western blot analysis was used to determine the expression of apoptosis-related proteins Bcl-XL, survivin, caspase-3 and caspase-8 (FIG. 7, panel A). β-actin was used as an internal control for Western blotting. The MCD-7 and MDA cells were treated with Sal-B (50 μM and 100 μM) and doxorubicin (0.1 μM and 1 μM), respectively, for 24 hours. Proteins were extracted from the cells with RIPA lysis buffer (Santa Cruz Biotechnology, Santa Cruz, CA) and the protein concentrations were quantified with Bio-Rad protein quantification kit. Whole-cell proteins were separated on 8% SDS-polyacrylamide gel, transferred to the polyvinylidene difluoride membrane (Bio-Rad), and then probed with the indicated primary antibodies overnight at 4° C. Washed blots were then incubated with horseradish peroxidase-conjugated anti-rabbit, anti-mouse, or anti-goat antibody (Santa Cruz Biotechnology), respectively, for one hour at room temperature. Blots were developed and visualized with ECL detection system (Bio-Rad).
In general terms: A western blot detects proteins with antibodies after separation by electrophoresis.

The next test concerns survivin. The test is described as follows: Western blot of survivin expression in MDA and MCF-7 cells. The following applies: Sal-B 50 μM and 100 μM, 24 hours. How it is done:
as §3

For another test, the system named is p-ERK. In words: Western blot of p-ERK expression in MCF-7 and MDA cells. The following applies: different concentrations of Sal-B, 24 hours. How it is done:
as §3
Because phospho-p44/42 extracellular signal-regulated kinases (p-ERK) is a key enzyme in the MAPK signal pathway, the expression of p-ERK was also investigated in MCF-7 and MDA cells following exposure to different concentrations of Sal-B for 24 hours.

Consider `O=C(/C=C/c1ccc(O)c2c1[C@H](C(=O)O[C@H](Cc1ccc(O)c(O)c1)C(=O)O)[C@@H](c1ccc(O)c(O)c1)O2)O[C@H](Cc1ccc(O)c(O)c1)C(=O)O` [Sal-B, Salvianolic acid B], for which the viability at 100 µM in the test on MCF-7 cells [1] (MCF7, 24 h, read-out: cell viability compared with untreated cells) was 65%; in the test on MDA-MB-231 cells [2] (Homo sapiens, MDA-MB-231, 24 h, read-out: cell viability compared with untreated cells), 69%. In addition, the IC50 stood at 120 µM with MCF-7 cells [1] (MCF7, MCF-7 cells, 24 hours, read-out: half maximal inhibitory concentration (IC50), cell viability) and 125 µM with MDA-MB-231 cells [2] (Homo sapiens, MDA-MB-231, MDA cells, 24 hours, read-out: half maximal inhibitory concentration (IC50), cell viability). Further, the “difference in inhibitory effect on cell viability between MDA and MCF-7 cells” value in the test with MDA-MB-231 cells [2] (Sal-B 50-200 μM, 24 hours) was “No significant difference”. The “changes in the cell cycle phases” value in the test with MCF-7 cells [3] and with MDA-MB-231 cells [4] was “no significant changes” each time. The “cyclin B1 expression (normalized to β-actin)” value in the test with cyclin B1 (MCF-7 cells) and in the test with cyclin B1 (MDA cells) was “down-regulation” each time. For the same compound, the survivin protein expression entry in the test with survivin (MCF-7 cells) and in the test on survivin (MDA cells) was “downregulated” throughout. The “p-ERK expression (normalized to β-actin)” value in the test on p-ERK (MCF-7 cells) and in the test on p-ERK (MDA cells) was “down-regulated” each time.

The viability is the share of living cells, or the viability signal relative to a control.

Values taken from US12383527B2, “Methods for treating triple negative breast cancer using salvianolic acid B” (HOWARD UNIVERSITY, priority 2018, dated 2025).
